Source: patent US4062862A, “5-Benzyl-2-oxazolidone derivatives and a process for producing the same” (Nippon Chemiphar Co., Ltd., priority 1975, dated 1977)

Key:
[1] = tested on: acetic acid-induced writhing syndrome in mice; assay: Analgetic effect, Acetic Acid-Induced Writhing Method; format: in vivo, dd Male mice; settings: 100 mg/kg oral, 30 min before acetic acid; for Writhing syndrome (number within 20 minutes): control 52.1 ± 2.7; for Inhibitory per cent (writhing): vs control
Procedure: dd Male mice weighing 18 to 22g, one group consisting of 10 animals, were given the intraperitoneal injection of 0.6% acetic acid in a dose of 0.1ml/10g-body weight. The number of writhing syndromes occurring within 20 minutes after injection was observed. Animals were orally given the test compounds suspended in 0.2% carboxymethylcellulose solution 30 minutes before the injection of acetic acid in a dose of 100mg/kg-body weight. Inhibitory percent was estimated in comparison with a control given the 0.2% carboxymethycellulose solution only. Aminopyrine was used as active placebo.

[2] = tested on: pain threshold in mice; assay: Analgetic effect, Pressure Test (pain threshold, tail pressure); format: in vivo, dd Male mice; settings: 100 mg/kg oral; for Pain threshold, Mean ± SE, 30 min / Pain threshold, Mean ± SE, 60 min / Pain threshold, Mean ± SE, 90 min / Pain threshold, Mean ± SE, 120 min: *p <0.05, **p <0.01, ***p <0.001
Procedure: dd Male mice weighing 18 to 22 g (pain threshold ranging within 30 to 50 mmHg), one group consisting of 10 animals, were given orally the test compounds suspended in 0.2% carboxymethylcellulose solution in a dose of 100mg/kg-body weight. Pain threshold were measured at 30, 60, 90 and 120 minutes after the administration of the test compounds while pain reaction occurring by application of pressure on tails of animals was referred to as indication. Aminopyrine was used as active placebo.

[3] = tested on: mice; assay: Muscular relaxing effect, Traction Test (T.T), oral, mice; format: in vivo, dd Male mice; settings: Mus musculus; Table 1; oral; mice; maximum response 15-180 min; Litchfield Wilcoxon
Procedure: (§1) dd Male mice weighing 18 to 22 g, one group consisting of 10 animals, were orally given the compounds (I) to (V) as indicated below suspended in 0.2% carboxymethylcellulose solution in a dose of 0.25ml/10g-body weight. Mephenesin was used as active placebo.

[4] = tested on: carrageenan-induced edema in rats; assay: Antiinflammatory effect on carrageenan-induced edema; format: in vivo, Wistar male rats; settings: Table 5, 200 mg/kg oral
Procedure: […] One hour after the administration of the test compounds, the hind paw was given a subcutaneous injection of 0.05ml of 0.5% carrageenan saline solution, and volume of the hind paw was measured at 1, 2, 3, 4, 5 and 6 hours after the injection of carrageenan by a volume differential meter. Inhibitory percent was calculated based on the swelling in the control. Phenybutazone was used as active placebo.

[5] = tested on: mice; assay: Muscular relaxing effect, Pinna Reflex Test (P.r), oral, mice; format: in vivo, dd Male mice; settings: Mus musculus; Table 1; oral; mice; maximum response 15-180 min; Litchfield Wilcoxon
Procedure: as §1
Pinna reflex was observed by using mandolin wire for 1/4 injection syringe.

[6] = tested on: mice; assay: Muscular relaxing effect, Rotarod Method (R.R), oral, mice; format: in vivo, dd Male mice; settings: Mus musculus; Table 1; oral; mice; maximum response 15-180 min; Litchfield Wilcoxon
Procedure: as §1
Mice were placed on Rotar Load (made by Natsume Seisakusho Co., Ltd.) having a diameter of 3 cm rotating at a speed of 10 rpm and falling (occurring within 3 minutes) was observed.

[7] = tested on: mice; assay: Muscular relaxing effect, Corneal Reflex Test (C.r), oral, mice; format: in vivo, dd Male mice; settings: Mus musculus; Table 1; oral; mice; maximum response 15-180 min; Litchfield Wilcoxon
Procedure: as §1
Corneal reflex was observed by using mandolin wire for 1/4 injection syringe.

[8] = tested on: mice; assay: Muscular relaxing effect, Inclined Plane Test (I.P), oral, mice; format: in vivo, dd Male mice; settings: Mus musculus; Table 1; oral; mice; maximum response 15-180 min; Litchfield Wilcoxon
Procedure: as §1
Mice were placed on veneer inclined at an angle of 30° and on wire-netting inclined at an angle of 60° of which one division is 5 mm square, and mice sliding down were observed as positive, in comparison with normal behavior.

[9] = tested on: mice; assay: Muscular relaxing effect, Righting Reflex Test (R.r), oral, mice; format: in vivo, dd Male mice; settings: Mus musculus; Table 1; oral; mice; maximum response 15-180 min; Litchfield Wilcoxon
Procedure: as §1

| SMILES | Writhing syndrome (number within 20 minutes) [1] | Inhibitory per cent (writhing) [1] [per cent] | Pain threshold Increase Ratio [2] | Pain threshold, Mean ± SE, 30 min [2] [mmHg] | Pain threshold, Mean ± SE, 60 min [2] [mmHg] | Pain threshold, Mean ± SE, 90 min [2] [mmHg] | Pain threshold, Mean ± SE, 120 min [2] [mmHg] | ED50 [3] [mg/kg] | Inhibitory per cent, carrageenan-induced edema, 3 hrs. [4] [per cent] | Inhibitory per cent, carrageenan-induced edema, 6 hrs. [4] [per cent] | ED50 [5] [mg/kg] | ED50 [6] [mg/kg] | ED50 [7] [mg/kg] | ED50 [8] [mg/kg] | ED50 [9] [mg/kg] |
| --- | --- | --- | --- | --- | --- | --- | --- | --- | --- | --- | --- | --- | --- | --- | --- |
| Cc1c(N(C)C)c(=O)n(-c2ccccc2)n1C [Aminopyrine, reference compound] | 19.3 ± 6.0 | 62.9 | 2.20 | 75.7 ± 5.4 | 67.3 ± 5.4 | 70.8 ± 5.3 | 53.1 ± 4.5 |  |  |  |  |  |  |  |  |
| O=C1NCC(Cc2ccc(Cl)cc2)O1 (stereo not drawn) [Compound V, 5-(p-chlorobenzyl)-2-oxazolidone] | 45.5 ± 5.3 | 12.8 | 1.15 | 54.6 ± 4.9 | 51.3 ± 4.3 | 48.8 ± 2.7 | 48.2 ± 1.7 | 380 | 30.6 | 22.8 | 530 | 240 | 750 | 520 | 750 |
| O=C1NCC(Cc2ccccc2)O1 (stereo not drawn) [I, 5-benzyl-2-oxazolidone] | 42.3 ± 5.9 | 18.9 | 1.34 | 58.2 ± 3.2 | 57.8 ± 3.2 | 51.5 ± 2.8 | 50.7 ± 2.2 | 660 | 49.5 | 13.0 | 800 | 460 |  | 940 | 1100 |
| CN1CC(Cc2ccccc2)OC1=O (stereo not drawn) [II, 5-benzyl-3-methyl-2-oxazolidone] | 45.9 ± 4.8 | 11.9 | 1.36 | 49.1 ± 4.5 | 49.2 ± 3.3 | 43.5 ± 4.7 | 36.3 ± 3.9 | 500 | 33.3 | 19.7 | 520 | 340 | 1100 | 500 | 810 |
| COc1ccccc1CC1CNC(=O)O1 (stereo not drawn) [III, 5-(o-methoxybenzyl)-2-oxazolidone] | 39.1 ± 6.4 | 24.9 | 1.20 | 43.7 ± 4.9 | 46.5 ± 4.2 | 42.9 ± 3.1 | 39.2 ± 3.6 | 350 | 32.7 | 23.3 | 380 | 175 | 500 | 380 | 500 |
| O=C1NCC(Cc2ccccc2Cl)O1 (stereo not drawn) [IV, 5-(o-chlorobenzyl)-2-oxazolidone] | 12.8 ± 3.6 | 75.4 | 1.89 | 69.8 ± 4.5 | 56.7 ± 5.3 | 53.3 ± 5.5 | 51.8 ± 6.2 | 390 | 16.8 | 15.9 | < 500 | 210 | 560 | 330 | 660 |
